According to publication PMC10689823, “Discovery of a Drug-like, Natural Product-Inspired DCAF11 Ligand Chemotype” (Nature Communications, 2023):
Values joined by “and” are separate entries in the source; they are usually repeats but may differ in a detail not shown here. Identical values can stand only once. Like-named read-outs stand apart in the source and are kept apart here. Blank lines part the entries; values can stand above or below the molecule they belong to.

Legend:
[1] = Cell viability assay (CellTiter-Glo) in Jurkat cells; format: cell-based; conditions: human, Jurkat cells
Protocol: (§1) Jurkat cells (3 × 10^3) and Hep G2 cells (3.5 × 10^3) were seeded in 96-well plates in 100 μL culture medium. Cells were treated with compounds dissolved in 50 μl medium at the indicated concentration for 72 h, at the same time, one plate of cells without compounds treatment was used for the cell count at time zero. After adding 40 μl of CellTiter-Glo® reagent (Promega, G7571) to each well for 10 min at room temperature, the luminescence was measured on a Spark® Multimode Microplate Reader (Tecan). The data was analyzed by the GraphPad Prism 9.0.

Jurkat cells = test: as above; format: cell-based; conditions: for Relative cell viability (%): Fig. 4k; for Cell viability (%) relative to DMSO: individual replicates, Supplementary Fig. 7g
Protocol: as §1

BRD2 = BRD2 (Homo sapiens, UniProt P25440); test: BRD2 levels by Western blot in Hep G2 and MDA-MB-231 cells (incl. RNA interference); format: cell-based; parameters: endogenous in cells; host or cells: Hep G2; MDA-MB-231; conditions: Hep G2 cells; 30 μM 15 for 1 h, then 10 μM 9 for 4 h
Chain of BRD2 (P25440 whole entry): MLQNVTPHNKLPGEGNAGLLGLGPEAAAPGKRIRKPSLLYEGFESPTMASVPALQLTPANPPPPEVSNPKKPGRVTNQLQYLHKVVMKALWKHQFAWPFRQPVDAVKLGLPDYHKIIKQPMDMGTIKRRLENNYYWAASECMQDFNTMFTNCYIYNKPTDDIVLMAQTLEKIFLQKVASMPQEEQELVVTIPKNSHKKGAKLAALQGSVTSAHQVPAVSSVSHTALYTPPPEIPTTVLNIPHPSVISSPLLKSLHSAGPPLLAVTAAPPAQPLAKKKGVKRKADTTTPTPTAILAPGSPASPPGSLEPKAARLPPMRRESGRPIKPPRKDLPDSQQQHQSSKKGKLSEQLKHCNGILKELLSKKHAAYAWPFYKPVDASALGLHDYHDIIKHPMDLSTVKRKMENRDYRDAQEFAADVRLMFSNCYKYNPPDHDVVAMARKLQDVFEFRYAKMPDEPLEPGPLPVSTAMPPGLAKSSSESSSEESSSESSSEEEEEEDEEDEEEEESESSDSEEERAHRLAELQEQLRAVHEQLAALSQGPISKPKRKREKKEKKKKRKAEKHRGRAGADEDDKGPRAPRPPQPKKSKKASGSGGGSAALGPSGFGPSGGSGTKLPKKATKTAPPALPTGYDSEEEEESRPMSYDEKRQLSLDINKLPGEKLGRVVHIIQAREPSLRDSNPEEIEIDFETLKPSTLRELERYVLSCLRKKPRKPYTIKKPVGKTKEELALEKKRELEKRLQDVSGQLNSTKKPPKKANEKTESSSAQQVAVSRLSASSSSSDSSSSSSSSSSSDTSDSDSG
Protocol: (§2) Cells were washed with PBS and lysed in lysis buffer (50 mM Tris-HCl, pH 7.4, 150 mM NaCl, 1% Triton X-100, 1% sodium deoxycholate, 0.1% SDS) with complete protease inhibitor cocktail (Roche, 11836170001) for 30 min on ice. For Ramos cells, cell pellets were lysed in lysis buffer (50 mM Tris-HCl, pH 8, 150 mM NaCl, 1% NP-40, 0.5% sodium deoxycholate) with complete protease inhibitor cocktail. After centrifugation at 16,000 x g, the supernatant was transferred into a new tube and the protein concentration was determined by DC protein assay (BIO-RAD, 5000116). Proteins were separated by SDS-PAGE and transferred to a PVDF membrane (Thermo scientific, 0.45 μm, 88518). For PDEδ, BRD2, GAPDH, BRD4, Vinculin and BTK, the membranes were blocked with Intercept® Blocking Buffer (LI-COR Biosciences, 927-70001) at room temperature for 1 h. The primary antibodies for these proteins were diluted with Intercept® Blocking Buffer (1:500 for PDEδ, 1:3000 for Vinculin, and 1:1000 for other proteins) and incubated with the membranes overnight at 4 °C. Membranes were washed with PBS + 0.1% Tween 20 (PBS-T) five times and incubated with secondary antibodies conjugated to IRDye® Infrared Fluorescent Dyes (1:5000, LI-COR Biosciences) at room temperature for 1 h with protection from light. After washing the membrane, signals were visualized using the ChemiDoc MP Imaging System (BIO-RAD Laboratories). For detection of LC3B, BRD3, BLK, DCAF11, DDB1 RBX1, FIP200, V5- and FLAG-Tag the membranes were blocked with 5% milk in PBS-T at room temperature for 1 h. The primary antibodies for these proteins were diluted in 5% milk in PBS-T buffer (1:200 for BRD3, 1:1000 for other proteins) and incubated with the membranes overnight at 4 °C. Membranes were washed with PBS-T five times and incubated with HRP secondary antibodies (1:1500) at room temperature for 1 h. After washing the membrane, protein detection was performed using Western blotting detection reagent (Thermo Scientific, 34095) and the ChemiDoc MP Imaging System (BIO-RAD). Relative band intensities were quantified using Image Lab (BIO-RAD).

Hep G2 cells = test: Cell viability assay (CellTiter-Glo) in Hep G2 cells; format: cell-based; conditions: Homo sapiens, HepG2, 72 h
Protocol: as §1

PDEδ [2] = molecular target: T1, PDEδ (Homo sapiens, UniProt O43924); test: PDEδ levels by Western blot in HEK293T, HAP1 and LC3B knockout HAP1 cells; format: cell-based; parameters: endogenous in cells; host or cells: HEK293T; HAP1 and LC3B-knockout HAP1
T1 sequence (O43924 whole entry): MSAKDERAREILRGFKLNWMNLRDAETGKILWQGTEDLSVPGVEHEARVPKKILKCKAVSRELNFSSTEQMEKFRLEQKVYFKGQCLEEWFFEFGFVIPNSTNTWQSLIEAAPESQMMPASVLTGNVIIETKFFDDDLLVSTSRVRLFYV
Protocol: as §2, with “After washing the membrane, signals were visualized using the ChemiDoc MP Imaging System (BIO-RAD Laboratories). For detection of LC3B, BRD3, BLK, DCAF11, DDB1 RBX1, FIP200, V5- and FLAG-Tag the membranes were blocked with 5% milk in PBS-T at room temperature for 1 h. The primary antibodies for these proteins were diluted in 5% milk in PBS-T buffer (1:200 for BRD3, 1:1000 for other proteins) and incubated with the membranes overnight at 4 °C. Membranes were washed with PBS-T five times and incubated with HRP secondary antibodies (1:1500) at room temperature for 1 h. After washing the membrane, protein detection was performed using Western blotting detection reagent (Thermo Scientific, 34095) and the ChemiDoc MP Imaging System (BIO-RAD).” left out

PDEδ [3] = molecular target: T1, PDEδ; test: PDEδ levels by Western blot in Dox-inducible DDB1 knockout KBM7 cells; format: cell-based; parameters: endogenous in cells; host or cells: Dox-inducible DDB1-knockout KBM7; conditions: 5 (10 μM) 8 h, Supplementary Fig. 4f
Protocol: as §2, with “After washing the membrane, signals were visualized using the ChemiDoc MP Imaging System (BIO-RAD Laboratories). For detection of LC3B, BRD3, BLK, DCAF11, DDB1 RBX1, FIP200, V5- and FLAG-Tag the membranes were blocked with 5% milk in PBS-T at room temperature for 1 h. The primary antibodies for these proteins were diluted in 5% milk in PBS-T buffer (1:200 for BRD3, 1:1000 for other proteins) and incubated with the membranes overnight at 4 °C. Membranes were washed with PBS-T five times and incubated with HRP secondary antibodies (1:1500) at room temperature for 1 h. After washing the membrane, protein detection was performed using Western blotting detection reagent (Thermo Scientific, 34095) and the ChemiDoc MP Imaging System (BIO-RAD).” left out

PDEδ [4] = molecular target: T1, PDEδ; test: PDEδ levels by Western blot in Jurkat cells; format: cell-based; parameters: endogenous in cells; host or cells: Jurkat; conditions: for remaining activity at 10 µM: Jurkat, 6 h, DMSO pretreatment 2 h, then 10 μM, 6h, read-out: PDEδ/Vinculin intensity (relative to DMSO control group)
PDE6D mRNA = test: RT-qPCR of PDE6D mRNA in Jurkat cells; format: cell-based; conditions: for PDE6D mRNA level (relative to DMSO control group): 6 h, Supplementary Fig. 1f
Protocol: Jurkat cells were grown in 12-well plates and treated with compounds for the indicated time. RNA was extracted using the RNeasy Plus Mini Kit (QIAGEN, 74134), and DNA was removed by DNase digestion with RNase-free DNase Set (QIAGEN, 79256). cDNA was synthesized using the QuantiTect Reverse Transcription Kit (QIAGEN, 205313). The mRNA expression level was evaluated with the QuantiFast SYBR Green PCR Kit (Qiagen, 330502), using the CFX96 Real-Time PCR Detection System (BIO-RAD Laboratories), and relative expression levels were calculated using the ΔΔCt method using GAPDH as reference[45] and analyzed in GraphPad Prism 9.0. The sequences of the primers for PDE6D were 5’-[…]-3’ (forward) and 5’-[…]-3’ (reverse). For GAPDH, the sequences were 5’-[…]-3’ (forward) and 5’-[…]-3’ (reverse). For BRD2, the sequences were 5’-[…]-3’ (forward), 5’-[…]-3’ (reverse). For BRD3, the sequences were 5’-[…]-3’ (forward), 5’-[…]-3’ (reverse). For BRD4, the sequences were 5’-[…]-3’ (forward), 5’-[…]-3’ (reverse). These primers were synthesized by Sigma-Aldrich.

LC3B = LC3B (Homo sapiens, UniProt Q9GZQ8); test: Thermal shift assay with LC3B; format: binding; conditions: 15 µM LC3B; 60 µM compound; Glo-Melt dye
Protocol: For thermal shift analysis, 15 µM of human LC3B was dispensed into 384-well plates (Hard-Shell 384-well 480 PCR plates, BioRAD #HSR4805) in buffer (50 mM Tris/HCl pH 7.4, 100 mM NaCl, 1 mM GSH and 0.02% CHAPS) with a Certus Flex liquid dispenser (Gyger). 60 µM compounds in DMSO (n4 or DMSO (0.6%) as control were added with an Echo 520 acoustic liquid handler (Labcyte). Glo-Melt dye was added (final concentration: 1/100), plates sealed with Lightcycler 480 Sealing Foils (Roche, #04 729 757 001) and mixed by short centrifugation (1 min, 60 g and room temeprature). A Lightcycler 480 II (Roche) was used for thermal shift curves with a temperature gradient from 20 to 95 °C according to the manufacturer´s protocol. Protein melting curves were analyzed, and the difference in meting temperature (ΔTm) was calculated with LightCycler Thermal Shift Analysis software (ROCHE) and visualized by Graphpad Prism (Version 9.5.1).

GI50 (Jurkat cells; Homo sapiens, Jurkat cells, 72 h): 1.7 ± 0.2 µM
effect of pretreatment on BRD2 degradation by 9 (BRD2): impaired the degradation of BRD2
Structure (SMILES): COCCCN(C(=O)CCl)C(C(=O)NCc1ccccc1)c1ccc(Cl)c(Cl)c1 (centres unmarked) [Compound 15, reference compound]
viability at 72 h, 10 nmol/L ([1]; concentration 10 nmol/L, individual replicates, Supplementary Fig. 7g, read-out: Cell viability (%) relative to DMSO): 90.9%
viability at 72 h, 30 nmol/L ([1]; concentration 30 nmol/L, individual replicates, Supplementary Fig. 7g, read-out: Cell viability (%) relative to DMSO): 89%
viability at 72 h, 0.01 µM ([1]; 72 h, 10 nM, Fig. 4k, read-out: Relative cell viability (%)): 98.2%
viability at 72 h, 0.03 µM ([1]; 72 h, 30 nM, Fig. 4k, read-out: Relative cell viability (%)): 95.3%
viability at 72 h, 0.1 µM ([1]; 72 h, 100 nM, Fig. 4k, read-out: Relative cell viability (%)): 97.5%
viability at 72 h, 0.3 µM ([1]; 72 h, 300 nM, Fig. 4k, read-out: Relative cell viability (%)): 89.8%
viability at 72 h, 1 µM ([1]; 72 h, 1000 nM, Fig. 4k, read-out: Relative cell viability (%)): 69.4%
Relative cell viability (%) (Jurkat cells; Jurkat cells, 72 h, 10 nM, 0.01 µM): 107.976% and 98.062%
Relative cell viability (%) (Jurkat cells; Jurkat cells, 72 h, 30 nM, 0.03 µM): 111.548% and 108.416%
Relative cell viability (%) (Jurkat cells; Jurkat cells, 72 h, 100 nM, 0.1 µM): 104.746% and 97.0657%
Relative cell viability (%) (Jurkat cells; Jurkat cells, 72 h, 300 nM, 0.3 µM): 101.886% and 95.5624%
Relative cell viability (%) (Jurkat cells; Jurkat cells, 72 h, 1000 nM, 1 µM): 76.2485% and 79.6366%
Relative cell viability (%) (Jurkat cells; Jurkat cells, 72 h, 3000 nM, 3 µM): -0.04609% and 0.01061% and 0.06492%
Relative cell viability (%) (Jurkat cells; Jurkat cells, 72 h, 10000 nM, 10 µM): -0.2034% and -0.1473% and -0.1406%
Relative cell viability (%) (Jurkat cells; Jurkat cells, 72 h, 30000 nM, 30 µM): -0.2515% and -0.2135% and -0.2133%
Cell viability (%) relative to DMSO (Jurkat cells; concentration 10 nmol/L): 93.1923% and 103.02%
Cell viability (%) relative to DMSO (Jurkat cells; concentration 30 nmol/L): 89.995% and 103.027%
Cell viability (%) relative to DMSO (Jurkat cells; concentration 100 nmol/L): 81.9055% and 90.259% and 101.913%
Cell viability (%) relative to DMSO (Jurkat cells; concentration 300 nmol/L): 82.6491% and 87.803% and 104.249%
Cell viability (%) relative to DMSO (Jurkat cells; concentration 1000 nmol/L): 80.0935% and 85.5797% and 108.086%
Cell viability (%) relative to DMSO (Jurkat cells; concentration 3000 nmol/L): 49.5057% and 68.1876% and 85.0918%
Cell viability (%) relative to DMSO (Jurkat cells; concentration 10000 nmol/L): 0.002496% and -0.07521% and -0.05875%
Cell viability (%) relative to DMSO (Jurkat cells; concentration 30000 nmol/L): -0.1172% and -0.221% and -0.2298%
GI50 (Hep G2 cells): 6.5 ± 1.8 µM

Structure (SMILES): Cc1ccc(-n2nc3c(=O)n(CCCC(=O)NCCc4ccc(C(=O)NCCOCCOCCOCCOc5c(Br)cc(/C=C6\C(=O)Nc7ccc(Br)cc76)cc5Br)cc4)nc(C)c3c2C)cc1 [Compound 5]
PDEδ degradation in HEK293T and HAP1 cell lines (PDEδ [2]; 5 μM or 10 μM): degraded
PDEδ degradation in LC3B knockout HAP1 cells (PDEδ [2]; LC3B knockout HAP1 cells): induced PDEδ degradation
PDEδ protein level (relative to DMSO control group) (PDEδ [3]; Dox-inducible DDB1 knockout KBM7 cells pretreated with 0.5 ug/mL Dox for 3 days): abolished
PDEδ protein level (relative to DMSO control group) (PDEδ [3]; Dox-inducible DDB1 knockout KBM7 cells, no Dox (DMSO)): 44.238 and 44.9587 and 52.5197 and 56.1328
PDEδ degradation (PDEδ [4]; 10 µM, 18 h incubation): ca. 75%
remaining activity at 10 µM (PDEδ [4]; Fig. 1g): 43.9%
remaining activity at 10 µM (PDEδ [4]; Fig. 1d): 44.2%
hook effect in PDEδ degradation (PDEδ [4]; up to 10 µM concentration): no hook effect
PDE6D mRNA level (relative to DMSO control group) (PDE6D mRNA; 3 μM): 141.721 and 114.564 and 90.7441
PDE6D mRNA level (relative to DMSO control group) (PDE6D mRNA; 10 μM): 145.389 and 133.515 and 106.183
PDEδ mRNA levels (in words) (PDE6D mRNA; 6 h treatment): no reduction in mRNA levels
change of melting temperature of LC3B (ΔTm) (LC3B): did not change the thermal stability
